Assay results from PubChem BioAssay (NCI).
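Growth conditions: 96-well plates. Treatment: test compound, 48 hours, 5 concentrations. Analysis: linear interpolation between bracketing concentrations; unreached endpoints set to highest concentration. GI50 is the concentration that inhibits growth by half. Definition used: TGI = concentration required for complete inhibition of growth.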 *1 amine or outer side, *2 acyl side, *3 side chain or, on linkers, in order; H or OH if unused. Where a SMILES comes first, the peptide text is derived from it. Bridges are numbered along the chain shown (N, C = ends). [ ]: non-standard residue; d: D form. The star is where a group is joined. Phe(3-F) = N[C@@H](Cc1cccc(F)c1)C(=O)O; Pro(4R-Me) = C[C@H]1CN[C@H](C(=O)O)C1; aThr = C[C@H](O)[C@H](N)C(=O)O; Pip = O=C(O)[C@@H]1CCCCN1; X8 = CCc1ccc(N*)c(F)c1; CO = O=C([*:1])[*:2]

Legend:
Assay in all cases: NCI tumour cell line growth inhibition, 48 h
[1] = tested on: SF-295 CNS
[2] = tested on: SK-OV-3 ovarian
[3] = tested on: SNB-19 CNS
[4] = tested on: HOP-62 NSCLC
[5] = tested on: SK-MEL-2 melanoma
[6] = tested on: HCC-2998 colon
[7] = tested on: SN12C renal
[8] = tested on: UO-31 renal
[9] = tested on: NCI-H522 lung
[10] = tested on: BT-549 breast
[11] = tested on: UACC-257 melanoma
[12] = tested on: IGROV1 ovarian
[13] = tested on: A549 NSCLC
[14] = tested on: NCI-H226 lung
[15] = tested on: RXF 393 renal
[16] = tested on: EKVX NSCLC
[17] = tested on: T-47D breast
[18] = tested on: 786-0 renal
[19] = tested on: PC-3 prostate
[20] = tested on: SF-268 CNS
[21] = tested on: A498 renal
[22] = tested on: UACC-62 melanoma
[23] = tested on: OVCAR-4 ovarian
[24] = tested on: SW-620 colon
[25] = tested on: OVCAR-5 ovarian
[26] = tested on: NCI/ADR-RES ovarian
[27] = tested on: SK-MEL-28 melanoma
[28] = tested on: COLO 205 colon
[29] = tested on: MOLT-4 leukemia
[30] = tested on: HT29 colon
[31] = tested on: U251 CNS
[32] = tested on: OVCAR-3 ovarian
[33] = tested on: TK-10 renal
[34] = tested on: SK-MEL-5 melanoma
[35] = tested on: HCT-15 colon
[36] = tested on: SR leukemia
[37] = tested on: MALME-3M melanoma
[38] = tested on: MCF7 breast
[39] = tested on: CCRF-CEM leukemia
[40] = tested on: HS 578T breast
[41] = tested on: K-562 leukemia
[42] = tested on: HOP-92 NSCLC
[43] = tested on: DU-145 prostate
[44] = tested on: ACHN renal
[45] = tested on: HL-60(TB) leukemia
[46] = tested on: NCI-H23 lung
[47] = tested on: HCT-116 colon
[48] = tested on: KM12 colon
[49] = tested on: NCI-H460 lung
[50] = tested on: M14 melanoma
[51] = tested on: SNB-75 CNS
[52] = tested on: MDA-MB-231 breast
[53] = tested on: SF-539 CNS
[54] = tested on: LOX IMVI melanoma
[55] = tested on: RPMI-8226 leukemia
[56] = tested on: CAKI-1 renal
[57] = tested on: OVCAR-8 ovarian
[58] = tested on: MDA-MB-435

CCc1ccc(NC(=O)N[C@@H](Cc2cccc(F)c2)C(=O)N[C@@H]2C(=O)N3CCC[C@H]3C(=O)N3CCCC[C@H]3C(=O)N[C@@H](C)C(=O)N3C[C@H](C)C[C@H]3C(=O)O[C@H]2C)c(F)c1 ({X8-CO}-[Phe(3-F)][aThr]P[Pip]A[Pro(4R-Me)]; ester 2-C)
GI50 [1]: 270 nM
TGI [1]: 1710 nM
GI50 [2]: 583 nM
GI50 [3]: 218 nM
TGI [3]: > 82900 nM
GI50 [4]: 562 nM
TGI [4]: > 53200 nM
GI50 [5]: 243 nM
TGI [5]: 2020 nM
GI50 [6]: 353 nM
TGI [6]: 2710 nM
GI50 [7]: 294 nM
TGI [7]: > 57300 nM
GI50 [8]: 377 nM
TGI [8]: 16500 nM
GI50 [9]: 182 nM
TGI [9]: 6820 nM
GI50 [10]: 199 nM
TGI [10]: 2800 nM
GI50 [11]: 319 nM
TGI [11]: 5320 nM
GI50 [12]: 614 nM
TGI [12]: > 47700 nM
GI50 [13]: 509 nM
TGI [13]: > 79500 nM
GI50 [14]: 351 nM
TGI [14]: 5230 nM
GI50 [15]: 948 nM
TGI [15]: 7960 nM
GI50 [16]: 367 nM
TGI [16]: > 58100 nM
GI50 [17]: 337 nM
TGI [17]: 18900 nM
GI50 [18]: 421 nM
TGI [18]: 75200 nM
GI50 [19]: 191 nM
TGI [19]: > 100000 nM
GI50 [20]: 463 nM
TGI [20]: 53400 nM
GI50 [21]: 616 nM
TGI [21]: 7340 nM
GI50 [22]: 369 nM
TGI [22]: 10100 nM
GI50 [23]: 163 nM
TGI [23]: > 19900 nM
GI50 [24]: 486 nM
TGI [24]: > 60700 nM
GI50 [25]: 439 nM
TGI [25]: 4660 nM
GI50 [26]: 962 nM
TGI [26]: > 51200 nM
GI50 [27]: 589 nM
TGI [27]: 13100 nM
GI50 [28]: 180 nM
TGI [28]: 511 nM
GI50 [29]: 594 nM
TGI [29]: 18100 nM
GI50 [30]: 352 nM
TGI [30]: 2750 nM
GI50 [31]: 318 nM
TGI [31]: 31800 nM
GI50 [32]: 337 nM
TGI [32]: 6870 nM
GI50 [33]: 608 nM
TGI [33]: 29100 nM
GI50 [34]: 354 nM
TGI [34]: 1570 nM
GI50 [35]: 347 nM
TGI [35]: 7220 nM
GI50 [36]: 380 nM
TGI [36]: 10200 nM
GI50 [37]: 464 nM
TGI [37]: 11400 nM
GI50 [38]: 272 nM
TGI [38]: 19300 nM
GI50 [39]: 252 nM
TGI [39]: 29900 nM
GI50 [40]: 264 nM
TGI [40]: 4580 nM
GI50 [41]: 52.6 nM
TGI [41]: > 56200 nM
GI50 [42]: 380 nM
TGI [42]: 6750 nM
GI50 [43]: 285 nM
TGI [43]: > 100000 nM
GI50 [44]: 503 nM
TGI [44]: > 53700 nM
GI50 [45]: 135 nM
TGI [45]: 1700 nM
GI50 [46]: 425 nM
TGI [46]: 20200 nM
GI50 [47]: 60.4 nM
TGI [47]: 2620 nM
GI50 [48]: 919 nM
TGI [48]: 18000 nM
GI50 [49]: 262 nM
TGI [49]: 12900 nM
GI50 [50]: 214 nM
TGI [50]: 2090 nM
GI50 [51]: 202 nM
TGI [51]: 3590 nM
GI50 [52]: 283 nM
TGI [52]: 2270 nM
GI50 [53]: 541 nM
TGI [53]: 12600 nM
GI50 [54]: 369 nM
TGI [54]: 16200 nM
GI50 [55]: 55.3 nM
TGI [55]: 4340 nM
GI50 [56]: 296 nM
TGI [56]: 13500 nM
GI50 [57]: 145 nM
TGI [57]: > 100000 nM
GI50 [58]: 183 nM
TGI [58]: 6010 nM

O=C(NNc1nc2cc(F)ccc2n2c(CN3CCC(O)C3)ccc12)c1cnccn1 (stereo not drawn)
GI50 [1]: 421 nM
TGI [1]: > 100000 nM
GI50 [2]: 858 nM
TGI [2]: > 28900 nM
GI50 [3]: 1000 nM
TGI [3]: > 100000 nM
GI50 [4]: 429 nM
TGI [4]: > 30600 nM
GI50 [5]: 4090 nM
TGI [5]: > 100000 nM
GI50 [6]: 738 nM
TGI [6]: > 100000 nM
GI50 [7]: 953 nM
TGI [7]: > 100000 nM
GI50 [8]: 97.2 nM
TGI [8]: 10100 nM
GI50 [9]: 1130 nM
TGI [9]: 14700 nM
GI50 [10]: 327 nM
TGI [10]: 9350 nM
GI50 [11]: 1710 nM
TGI [11]: 7530 nM
GI50 [12]: 679 nM
TGI [12]: > 100000 nM
GI50 [13]: 555 nM
TGI [13]: > 100000 nM
GI50 [14]: 920 nM
TGI [14]: > 63400 nM
GI50 [15]: 946 nM
TGI [15]: > 40500 nM
GI50 [16]: 449 nM
TGI [16]: > 100000 nM
GI50 [17]: 1190 nM
TGI [17]: > 100000 nM
GI50 [18]: 308 nM
TGI [18]: > 22800 nM
GI50 [19]: 790 nM
TGI [19]: > 100000 nM
GI50 [20]: 744 nM
TGI [20]: > 100000 nM
GI50 [21]: 2040 nM
TGI [21]: 8910 nM
GI50 [22]: 408 nM
TGI [22]: 84400 nM
GI50 [23]: 676 nM
TGI [23]: > 100000 nM
GI50 [24]: 973 nM
TGI [24]: > 100000 nM
GI50 [25]: 1830 nM
TGI [25]: > 100000 nM
GI50 [26]: 330 nM
TGI [26]: > 35500 nM
GI50 [27]: 795 nM
TGI [27]: > 100000 nM
GI50 [28]: 406 nM
TGI [28]: > 100000 nM
GI50 [29]: 489 nM
TGI [29]: > 51300 nM
GI50 [30]: 512 nM
TGI [30]: > 100000 nM
GI50 [31]: 470 nM
TGI [31]: > 100000 nM
GI50 [33]: 921 nM
TGI [33]: > 100000 nM
GI50 [34]: 1000 nM
TGI [34]: 8290 nM
GI50 [35]: 148 nM
TGI [35]: > 100000 nM
GI50 [36]: 389 nM
TGI [36]: > 21800 nM
GI50 [37]: 1570 nM
TGI [37]: > 100000 nM
GI50 [38]: 725 nM
TGI [38]: > 100000 nM
GI50 [39]: 347 nM
TGI [39]: > 100000 nM
GI50 [40]: 8660 nM
TGI [40]: > 100000 nM
GI50 [41]: 564 nM
TGI [41]: > 100000 nM
GI50 [42]: 590 nM
TGI [42]: > 100000 nM
GI50 [43]: 981 nM
TGI [43]: > 100000 nM
GI50 [44]: 217 nM
TGI [44]: 36200 nM
GI50 [45]: 622 nM
TGI [45]: 6360 nM
GI50 [46]: 1100 nM
TGI [46]: > 100000 nM
GI50 [47]: 87.6 nM
TGI [47]: > 35100 nM
GI50 [48]: 573 nM
TGI [48]: > 100000 nM
GI50 [49]: 315 nM
TGI [49]: > 31600 nM
TGI [50]: 1080 nM
GI50 [51]: 1960 nM
TGI [51]: > 30400 nM
GI50 [52]: 941 nM
TGI [52]: > 100000 nM
GI50 [53]: 763 nM
TGI [53]: > 100000 nM
GI50 [54]: 417 nM
TGI [54]: 6160 nM
GI50 [55]: 747 nM
TGI [55]: > 100000 nM
GI50 [56]: 515 nM
TGI [56]: > 100000 nM
GI50 [57]: 439 nM
TGI [57]: > 44500 nM
GI50 [58]: 1580 nM
TGI [58]: > 100000 nM
